Measured values from patent publication US9605064B2, “Methods and compositions for treatment of skin disorders” (AbbVie Biotechnology Ltd, priority 2006, dated 2017).
Where “and” joins values, the source holds several entries; their conditions need not be identical. Identical values can stand only once. Marks after values point to notes of the source that are not given here.

Tests used:
[1] = system: patients with severe psoriasis who were non-responders to high-dosage etanercept; assay: PASI response, open-label adalimumab in non-responders to high-dosage etanercept; type: in vivo, human
Description: Details on clinical course and adverse events were recorded, along with measurements of PASI and Dermatology Life Quality Index (DLQI) at baseline and Weeks 2, 4, 8, and 12.
This was an open-label prospective evaluation of adalimumab (HUMIRA®, Abbott Laboratories, Abbott Park, Ill., USA). Patients who were non-responders to etanercept were recruited from the Severe Psoriasis Clinic at St John's Institute of Dermatology in London. […] Inclusion criteria included male and female patients more than 18 years of age with plaque psoriasis (Table 98). The study was approved by St Thomas' Research Ethics Committee, and informed consent was obtained from all participants.
The study period was 12 weeks. […] Patients were able to withdraw from the study at any stage. They were permitted to continue topical treatments at stable dosages throughout the study, but could not use concomitant systemic therapy for psoriasis.
At each clinical visit PASI, DLQI, and percentage body surface area (% BSA) affected were assessed and recorded. In addition, patients received medical assessments together with monitoring laboratory investigations (FIG. 11).
The secondary efficacy endpoint was PASI 75 response rate at Week 12.

[2] = Adalimumab serum concentrations by ELISA, Phase II trial; type: in vivo, human; conditions: for steady-state concentration: 40 mg eow dosing; for mean adalimumab serum concentration: 80 mg at Week 0 and 40 mg at Week 1
[3] = system: patients with moderate to severe chronic plaque psoriasis; assay: PASI response and PGA, 120-week open-label extension study; type: in vivo, human; conditions: 40 mg eow, as observed
Excerpt: Exclusion criteria included prior TNF-antagonist therapy.

[4] = system: adult patients with moderate to severe chronic plaque psoriasis; conditions: in vivo

Substance: Adalimumab: a human anti-TNF mAb, described in U.S. Pat. No. 6,090,382 as D2E7 (HUMIRA, Abbott Laboratories)
- patients who achieved at least PASI 50 ([1]; 40 mg weekly, Week 12): 80%
- PASI 50 response ([1]; Patient 1): non-responder
- time at which PASI 50 was achieved ([1]; Patient 2): ≤ 8 Week
- time at which PASI 75 was reached ([1]; Patient 2): 12 Week
- time at which PASI 50 was achieved ([1]; Patient 3): ≤ 4 Week
- time at which PASI 50 was achieved ([1]; Patient 4): ≤ 2 Week
- time at which PASI 75 was reached ([1]; Patient 4): 4 Week
- time at which PASI 50 was achieved ([1]; Patient 5): ≤ 12 Week
- PASI ([1]; Week 2, individual patients 1-5 (c1-c5), weekly adalimumab): 23.4 and 23.6 and 21.6 and 11.2 and 22.9
- PASI ([1]; Week 4, individual patients 1-5 (c1-c5), weekly adalimumab): 26.7 and 20.1 and 8.70 and 7.00 and 23.6
- PASI ([1]; Week 8, individual patients 1-5 (c1-c5), weekly adalimumab): 18.2 and 12.3 and 8.40 and 19.6
- PASI ([1]; Week 12, individual patients 1-5 (c1-c5), weekly adalimumab): 21.2 and 6.30 and 3.3 and 7.10 and 15.2
- % Improvement in PASI from baseline to Week 12 ([1]; individual patients 1-5 (c1-c5), weekly adalimumab): 6% and 82% and 93% and 52% and 53%
- steady-state concentration ([2]; Week 11): 6.0 µg/mL
- steady-state concentration ([2]; Week 12): 6.9 µg/mL
- mean adalimumab serum concentration ([2]; Week 1): 6.0 µg/mL
- mean adalimumab serum concentration ([2]; Week 2): 8.8 µg/mL
- PASI 50 response, % Patients ([3]; Week 12): 78.7%
- PASI 75 response, % Patients ([3]; Week 12): 56.2%
- PASI 90 response, % Patients ([3]; Week 12): 29.2%
- PASI 100 response, % Patients ([3]; Week 12): 11.2%
- PASI 50 response, % Patients ([3]; Week 24): 86.7%
- PASI 75 response, % Patients ([3]; Week 24): 74.7%
- PASI 90 response, % Patients ([3]; Week 24): 52%
- PASI 100 response, % Patients ([3]; Week 24): 20%
- PASI 50 response, % Patients ([3]; Week 48): 96.7%
- PASI 75 response, % Patients ([3]; Week 48): 81.7%
- PASI 90 response, % Patients ([3]; Week 48): 61.7%
- PASI 100 response, % Patients ([3]; Week 48): 31.7%
- PASI 50 response, % Patients ([3]; Week 72): 96.2%
- PASI 75 response, % Patients ([3]; Week 72): 73.1%
- PASI 90 response, % Patients ([3]; Week 72): 53.8%
- PASI 100 response, % Patients ([3]; Week 72): 25%
- PASI 50 response, % Patients ([3]; Week 96): 92.5%
- PASI 75 response, % Patients ([3]; Week 96): 75.5%
- PASI 90 response, % Patients ([3]; Week 96): 52.8%
- PASI 100 response, % Patients ([3]; Week 96): 24.5%
- PASI 50 response, % Patients ([3]; Week 120): 93.9%
- PASI 75 response, % Patients ([3]; Week 120): 77.6%
- PASI 90 response, % Patients ([3]; Week 120): 53.1%
- PASI 100 response, % Patients ([3]; Week 120): 28.6%
- Infectious AEs, percentage [4]: 28.9‡ %
- Upper Respiratory Tract Infection [4]: 59 (7.2) n (%)
